{
  "source": "patent US8394592B2",
  "about": "“Methods for assessing cancer susceptibility to carcinogens in tobacco products” (The Board of Regents of the University of Texas System, priority 2006, dated 2013)",
  "test_system": "peripheral blood lymphocytes",
  "assay": "Cytokinesis-block micronucleus (CBMN) assay, NNK-treated lymphocyte cultures of lung cancer cases and controls",
  "type": "cell-based, human",
  "conditions": "0.24 mM NNK",
  "experimental": "The CBMN test was performed using the cytochalasin B technique described by Fenech and Morley (22) and following recommendations from The International Collaborative Project on Micronucleus Frequency in Human Populations (HUMN Project) to measure MN, NPBs and NBUDs in untreated cells and NNK-treated cells (27). Duplicate lymphocyte cultures were prepared for each study subject. Each culture contained 2.0×10^6 cells in 5 mL RPMI 1640 medium supplemented with 100 U/mL penicillin, 100 μg/mL streptomycin, 10% fetal bovine serum, and 2 mM L-glutamine (Gibco-Invitrogen, Carlsbad, Calif.) and 1% phytohemagglutinin (Remel, Lenexa, Kans.). For the cultures treated with NNK, 24 hours after initiation, the PBLs were centrifuged and the supernatant growth medium was removed and reserved. The PBLs were resuspended in 5 mL of serum-free RPMI 1640 medium supplemented with 0.24 mM NNK (a dose previously used by us and others (23-26) (CAS No. 64091-91-4, National Cancer Institute, Midwest Carcinogen Repository, Kansas City, Mo.; purity>98%) and incubated at 37° C. in the presence of 5% CO2 for 2 hours.\nNext, the PBLs were washed twice with serum-free RPMI 1640, transferred to clean tubes and re-incubated for […] in the reserved supernatant. At 44 hours after initiation, cells were blocked in cytokinesis by adding cytochalasin B (Sigma, St. Louis, Mo.; final concentration 4 µg/mL). Similarly, cultures for the determination of spontaneous damage (untreated cells) were handled in the same manner, with the exception of treatment with NNK. The total incubation time for all cultures was 72 hours. After incubation, the cells were fixed in 3:1 methanol:glacial acetic acid, dropped onto clean microscopic slides, air-dried and stained with Giemsa stain. For each sample, 1000 binucleated cells were scored blindly using a Nikon E-400 light optical microscope following the scoring criteria outlined by HUMN Project (2,22,27); the numbers of MN, NPBs, and NBUDs per 1000 binucleated cells were recorded. For quality control, 20% of the slides were randomly selected and blindly rescored and the results compared with the original scoring.",
  "key": {"[1]": {"conditions": "Case, History of Alcohol Use No"}, "[2]": {"conditions": "Case, History of Alcohol Use Yes"}},
  "data": [
    {"smiles": "CN(CCCC(=O)c1cccnc1)N=O", "note": "[NNK, 4-(methylnitrosamino)-1-(3-pyridyl)-1-butanone]", "values": [
      {"measurement": "NNK-induced MN, Mean ± SE", "setting": "Case, Age > 62", "value": "4.54 ± 0.22 per 1000 binucleated cells"},
      {"measurement": "NNK-induced MN, Median", "setting": "Case, Age > 62", "value": "4.0 per 1000 binucleated cells"},
      {"measurement": "NNK-induced NBUDs, Mean ± SE", "setting": "Case, Age > 62", "value": "0.90 ± 0.17 per 1000 binucleated cells"},
      {"measurement": "NNK-induced NBUDs, Median", "setting": "Case, Age > 62", "value": "1.0 per 1000 binucleated cells"},
      {"measurement": "NNK-induced NPBs, Mean ± SE", "setting": "Case, Age > 62", "value": "8.15 ± 0.33 per 1000 binucleated cells"},
      {"measurement": "NNK-induced NPBs, Median", "setting": "Case, Age > 62", "value": "8.0 per 1000 binucleated cells"},
      {"measurement": "NNK-induced MN, Mean ± SE", "setting": "Case, Age ≦ 62", "value": "4.22 ± 0.11 per 1000 binucleated cells"},
      {"measurement": "NNK-induced MN, Median", "setting": "Case, Age ≦ 62", "value": "4.0 per 1000 binucleated cells"},
      {"measurement": "NNK-induced NBUDs, Mean ± SE", "setting": "Case, Age ≦ 62", "value": "1.12 ± 0.11 per 1000 binucleated cells"},
      {"measurement": "NNK-induced NBUDs, Median", "setting": "Case, Age ≦ 62", "value": "1.0 per 1000 binucleated cells"},
      {"measurement": "NNK-induced NPBs, Mean ± SE", "setting": "Case, Age ≦ 62", "value": "8.11 ± 0.23 per 1000 binucleated cells"},
      {"measurement": "NNK-induced NPBs, Median", "setting": "Case, Age ≦ 62", "value": "8.0 per 1000 binucleated cells"},
      {"measurement": "NNK-induced MN, Mean ± SE", "setting": "Case, Females", "value": "4.19 ± 0.17 per 1000 binucleated cells"},
      {"measurement": "NNK-induced MN, Median", "setting": "Case, Females", "value": "4.0 per 1000 binucleated cells"},
      {"measurement": "NNK-induced NBUDs, Mean ± SE", "setting": "Case, Females", "value": "1.07 ± 0.12 per 1000 binucleated cells"},
      {"measurement": "NNK-induced NBUDs, Median", "setting": "Case, Females", "value": "1.0 per 1000 binucleated cells"},
      {"measurement": "NNK-induced NPBs, Mean ± SE", "setting": "Case, Females", "value": "8.24 ± 0.32 per 1000 binucleated cells"},
      {"measurement": "NNK-induced NPBs, Median", "setting": "Case, Females", "value": "8.0 per 1000 binucleated cells"},
      {"measurement": "NNK-induced MN, Mean ± SE", "setting": "[1]", "value": "4.26 ± 0.14 per 1000 binucleated cells"},
      {"measurement": "NNK-induced MN, Median", "setting": "[1]", "value": "4.00 per 1000 binucleated cells"},
      {"measurement": "NNK-induced NBUDs, Mean ± SE", "setting": "[1]", "value": "1.09 ± 0.18 per 1000 binucleated cells"},
      {"measurement": "NNK-induced NBUDs, Median", "setting": "[1]", "value": "1.00 per 1000 binucleated cells"},
      {"measurement": "NNK-induced NPBs, Mean ± SE", "setting": "[1]", "value": "8.04 ± 0.32 per 1000 binucleated cells"},
      {"measurement": "NNK-induced NPBs, Median", "setting": "[1]", "value": "8.00 per 1000 binucleated cells"},
      {"measurement": "NNK-induced MN, Mean ± SE", "setting": "[2]", "value": "4.37 ± 0.14 per 1000 binucleated cells"},
      {"measurement": "NNK-induced MN, Median", "setting": "[2]", "value": "4.00 per 1000 binucleated cells"},
      {"measurement": "NNK-induced NBUDs, Mean ± SE", "setting": "[2]", "value": "1.04 ± 0.11 per 1000 binucleated cells"},
      {"measurement": "NNK-induced NBUDs, Median", "setting": "[2]", "value": "1.00 per 1000 binucleated cells"},
      {"measurement": "NNK-induced NPBs, Mean ± SE", "setting": "[2]", "value": "8.14 ± 0.24 per 1000 binucleated cells"},
      {"measurement": "NNK-induced NPBs, Median", "setting": "[2]", "value": "8.00 per 1000 binucleated cells"},
      {"measurement": "NNK-induced MN, Mean ± SE", "setting": "Case, Males", "value": "4.37 ± 0.13 per 1000 binucleated cells"},
      {"measurement": "NNK-induced MN, Median", "setting": "Case, Males", "value": "4.0 per 1000 binucleated cells"},
      {"measurement": "NNK-induced NBUDs, Mean ± SE", "setting": "Case, Males", "value": "1.07 ± 0.11 per 1000 binucleated cells"},
      {"measurement": "NNK-induced NBUDs, Median", "setting": "Case, Males", "value": "1.0 per 1000 binucleated cells"},
      {"measurement": "NNK-induced NPBs, Mean ± SE", "setting": "Case, Males", "value": "8.07 ± 0.23 per 1000 binucleated cells"},
      {"measurement": "NNK-induced NPBs, Median", "setting": "Case, Males", "value": "8.0 per 1000 binucleated cells"},
      {"measurement": "NNK-induced MN, Mean ± SE", "setting": "Case, Overall", "value": "4.32±0.10 per 1000 binucleated cells"},
      {"measurement": "NNK-induced MN, Median", "setting": "Case, Overall", "value": "4.0 per 1000 binucleated cells"},
      {"measurement": "NNK-induced NBUDs, Mean ± SE", "setting": "Case, Overall", "value": "1.07±0.09 per 1000 binucleated cells"},
      {"measurement": "NNK-induced NBUDs, Median", "setting": "Case, Overall", "value": "1.0 per 1000 binucleated cells"},
      {"measurement": "NNK-induced NPBs, Mean ± SE", "setting": "Case, Overall", "value": "8.12±0.19 per 1000 binucleated cells"},
      {"measurement": "NNK-induced NPBs, Median", "setting": "Case, Overall", "value": "8.0 per 1000 binucleated cells"},
      {"measurement": "NNK-induced MN, Mean ± SE", "setting": "Case, Years smoked > 32", "value": "4.33 ± 0.10 per 1000 binucleated cells"},
      {"measurement": "NNK-induced MN, Median", "setting": "Case, Years smoked > 32", "value": "4.0 per 1000 binucleated cells"},
      {"measurement": "NNK-induced NBUDs, Mean ± SE", "setting": "Case, Years smoked > 32", "value": "1.08 ± 0.01 per 1000 binucleated cells"},
      {"measurement": "NNK-induced NBUDs, Median", "setting": "Case, Years smoked > 32", "value": "1.0 per 1000 binucleated cells"},
      {"measurement": "NNK-induced NPBs, Mean ± SE", "setting": "Case, Years smoked > 32", "value": "8.07 ± 0.19 per 1000 binucleated cells"},
      {"measurement": "NNK-induced NPBs, Median", "setting": "Case, Years smoked > 32", "value": "8.0 per 1000 binucleated cells"},
      {"measurement": "NNK-induced MN, Mean ± SE", "setting": "Case, Years smoked ≦ 32", "value": "3.63 ± 0.32 per 1000 binucleated cells"},
      {"measurement": "NNK-induced MN, Median", "setting": "Case, Years smoked ≦ 32", "value": "4.0 per 1000 binucleated cells"},
      {"measurement": "NNK-induced NBUDs, Mean ± SE", "setting": "Case, Years smoked ≦ 32", "value": "1.13 ± 0.44 per 1000 binucleated cells"},
      {"measurement": "NNK-induced NBUDs, Median", "setting": "Case, Years smoked ≦ 32", "value": "1.0 per 1000 binucleated cells"},
      {"measurement": "NNK-induced NPBs, Mean ± SE", "setting": "Case, Years smoked ≦ 32", "value": "9.25 ± 0.96 per 1000 binucleated cells"},
      {"measurement": "NNK-induced NPBs, Median", "setting": "Case, Years smoked ≦ 32", "value": "8.3 per 1000 binucleated cells"},
      {"measurement": "NNK-induced MN, Mean ± SE", "setting": "Control, Age > 62", "value": "2.75 ± 0.15 per 1000 binucleated cells"},
      {"measurement": "NNK-induced MN, Median", "setting": "Control, Age > 62", "value": "3.0 per 1000 binucleated cells"},
      {"measurement": "NNK-induced NBUDs, Mean ± SE", "setting": "Control, Age > 62", "value": "0.10 ± 0.05 per 1000 binucleated cells"},
      {"measurement": "NNK-induced NBUDs, Median", "setting": "Control, Age > 62", "value": "0.0 per 1000 binucleated cells"},
      {"measurement": "NNK-induced NPBs, Mean ± SE", "setting": "Control, Age > 62", "value": "2.35 ± 0.14 per 1000 binucleated cells"},
      {"measurement": "NNK-induced NPBs, Median", "setting": "Control, Age > 62", "value": "2.0 per 1000 binucleated cells"},
      {"measurement": "NNK-induced MN, Mean ± SE", "setting": "Control, Age ≦ 62", "value": "2.58 ± 0.14 per 1000 binucleated cells"},
      {"measurement": "NNK-induced MN, Median", "setting": "Control, Age ≦ 62", "value": "2.0 per 1000 binucleated cells"},
      {"measurement": "NNK-induced NBUDs, Mean ± SE", "setting": "Control, Age ≦ 62", "value": "0.13 ± 0.04 per 1000 binucleated cells"},
      {"measurement": "NNK-induced NBUDs, Median", "setting": "Control, Age ≦ 62", "value": "0.0 per 1000 binucleated cells"},
      {"measurement": "NNK-induced NPBs, Mean ± SE", "setting": "Control, Age ≦ 62", "value": "2.41 ± 0.11 per 1000 binucleated cells"},
      {"measurement": "NNK-induced NPBs, Median", "setting": "Control, Age ≦ 62", "value": "2.0 per 1000 binucleated cells"},
      {"measurement": "NNK-induced MN, Mean ± SE", "setting": "Control, Females", "value": "2.51 ± 0.23 per 1000 binucleated cells"},
      {"measurement": "NNK-induced MN, Median", "setting": "Control, Females", "value": "2.0 per 1000 binucleated cells"},
      {"measurement": "NNK-induced NBUDs, Mean ± SE", "setting": "Control, Females", "value": "0.11 ± 0.05 per 1000 binucleated cells"},
      {"measurement": "NNK-induced NBUDs, Median", "setting": "Control, Females", "value": "1.0 per 1000 binucleated cells"}
    ]}
  ]
}
